Measurements: PubChem BioAssay AID330 (DTP/NCI, 2004)
Several values for one entry are separate records, joined by “and”; a condition that tells them apart may be missing. Equal entries are not always repeated. Inconclusive results and toxic doses are left out.

Tested on: P388 leukemia ip, CD2F1 mice, survival T/C
Assay: NCI In Vivo Anticancer Drug Screen. Data for tumor model P388 Leukemia (intraperitoneal) in CD2F1 (CDF1) mice
Conditions: endpoint: median survival time, higher = longer survival
Summary of the method: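 Mice carrying the transplanted tumor received test compound or vehicle. Survival was recorded in each group, and the value is the treated-group measurement divided by that of the vehicle-treated control group.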

[1] = dose: 100.0 mg/kg/injection, schedule: Q04DX003 (ip), vehicle: Klucel (hydroxypropylcellulose) (HPC)
[2] = dose: 400.0 mg/kg/injection, schedule: Q04DX003 (ip), vehicle: Klucel (hydroxypropylcellulose) (HPC)
[3] = dose: 50.0 mg/kg/injection, schedule: Q01DX005 (ip), vehicle: saline
[4] = dose: 100.0 mg/kg/injection, schedule: Q01DX005 (ip), vehicle: saline
[5] = dose: 200.0 mg/kg/injection, schedule: Q01DX005 (ip), vehicle: saline
[6] = dose: 100.0 mg/kg/injection, schedule: Q01DX009 (ip), vehicle: saline with Tween-80
[7] = dose: 200.0 mg/kg/injection, schedule: Q01DX009 (ip), vehicle: saline with Tween-80
[8] = dose: 12.5 mg/kg/injection, schedule: Q01DX009 (ip), vehicle: water
[9] = dose: 25.0 mg/kg/injection, schedule: Q01DX009 (ip), vehicle: water
[10] = dose: 50.0 mg/kg/injection, schedule: Q01DX009 (ip), vehicle: water
[11] = dose: 100.0 mg/kg/injection, schedule: Q01DX009 (ip), vehicle: water
[12] = dose: 100.0 mg/kg/injection, schedule: Q01DX001 (ip), vehicle: Klucel (hydroxypropylcellulose) (HPC)
[13] = dose: 200.0 mg/kg/injection, schedule: Q01DX001 (ip), vehicle: Klucel (hydroxypropylcellulose) (HPC)
[14] = dose: 60.0 mg/kg/injection, schedule: Q01DX005 (ip), vehicle: saline with Tween-80
[15] = dose: 120.0 mg/kg/injection, schedule: Q01DX005 (ip), vehicle: saline with Tween-80
[16] = dose: 240.0 mg/kg/injection, schedule: Q01DX005 (ip), vehicle: saline with Tween-80
[17] = dose: 50.0 mg/kg/injection, schedule: Q01DX005 (ip), vehicle: saline with Tween-80
[18] = dose: 100.0 mg/kg/injection, schedule: Q01DX005 (ip), vehicle: saline with Tween-80
[19] = dose: 200.0 mg/kg/injection, schedule: Q01DX005 (ip), vehicle: saline with Tween-80
[20] = dose: 50.0 mg/kg/injection, schedule: Q01DX009 (ip), vehicle: saline with Tween-80

## Nc1nc(N)c(-c2ccc(Cl)c(Cl)c2)c(COc2cccc(CNC(=O)c3cccc(S(=O)(=O)F)c3)c2)n1
[1]
  T/C: 110 % of control
[2]
  T/C: 120 % of control

## CN1OC(=O)OC2(CCCCC2)C1=O
[3]
  T/C: 96 % of control
[4]
  T/C: 99 % of control
[5]
  T/C: 96 % of control

## NS(=O)(=O)c1ccc(N=Cc2ccccc2)cc1
[6]
  T/C: 103 % of control
[7]
  T/C: 100 % of control
dose: 400.0 mg/kg/injection, schedule: Q01DX009 (ip), vehicle: saline with Tween-80
  T/C: 98 % of control

## O=NNc1ccc(S(=O)(=O)c2ccccc2)cn1
dose: 3.12 mg/kg/injection, schedule: Q01DX009 (ip), vehicle: sodium bicarbonate
  T/C: 98 % of control
dose: 6.25 mg/kg/injection, schedule: Q01DX009 (ip), vehicle: sodium bicarbonate
  T/C: 98 % of control
dose: 12.5 mg/kg/injection, schedule: Q01DX009 (ip), vehicle: sodium bicarbonate
  T/C: 94 % of control and 96 % of control
dose: 25.0 mg/kg/injection, schedule: Q01DX009 (ip), vehicle: sodium bicarbonate
  T/C: 100 % of control and 104 % of control
dose: 50.0 mg/kg/injection, schedule: Q01DX009 (ip), vehicle: sodium bicarbonate
  T/C: 109 % of control
dose: 100.0 mg/kg/injection, schedule: Q01DX009 (ip), vehicle: sodium bicarbonate
  T/C: 160 % of control

## O=c1ncccn1[C@@H]1O[C@H](CO)[C@H](O)C1O (some centres undefined)
dose: 6.25 mg/kg/injection, schedule: Q01DX009 (ip), vehicle: water
  T/C: 103 % of control
[8]
  T/C: 104 % of control
[9]
  T/C: 101 % of control
[10]
  T/C: 102 % of control
[11]
  T/C: 108 % of control
dose: 400.0 mg/kg/injection, schedule: Q01DX009 (ip), vehicle: saline
  T/C: 152 % of control

## CC[N+]1(C)CCCCC1
dose: 6.25 mg/kg/injection, schedule: Q01DX009 (ip), vehicle: saline
  T/C: 107 % of control
dose: 12.5 mg/kg/injection, schedule: Q01DX009 (ip), vehicle: saline
  T/C: 103 % of control
dose: 25.0 mg/kg/injection, schedule: Q01DX009 (ip), vehicle: saline
  T/C: 97 % of control
dose: 50.0 mg/kg/injection, schedule: Q01DX009 (ip), vehicle: saline
  T/C: 97 % of control

## C1=CN2C(c3ccccc3)=NN(c3ccccc3)[C@@H]2c2ccccc21
dose: 1.87 mg/kg/injection, schedule: Q01DX005 (ip), vehicle: saline with Tween-80
  T/C: 102 % of control
dose: 3.75 mg/kg/injection, schedule: Q01DX005 (ip), vehicle: saline with Tween-80
  T/C: 102 % of control
dose: 7.5 mg/kg/injection, schedule: Q01DX005 (ip), vehicle: saline with Tween-80
  T/C: 103 % of control and 93 % of control

## OCc1c(-c2ccccc2)nc2n1CCS2
[12]
  T/C: 102 % of control
[13]
  T/C: 102 % of control
dose: 400.0 mg/kg/injection, schedule: Q01DX001 (ip), vehicle: Klucel (hydroxypropylcellulose) (HPC)
  T/C: 98 % of control

## O=C(CCCCC(=O)N/N=C/c1cccc([N+](=O)[O-])c1)N/N=C/c1cccc([N+](=O)[O-])c1
[14]
  T/C: 100 % of control
[15]
  T/C: 92 % of control
[16]
  T/C: 94 % of control

## O=C1CC(=O)C(Br)=C1Br
dose: 0.37 mg/kg/injection, schedule: Q01DX009 (ip), vehicle: saline
  T/C: 109 % of control
dose: 0.75 mg/kg/injection, schedule: Q01DX009 (ip), vehicle: saline
  T/C: 100 % of control
dose: 0.75 mg/kg/injection, schedule: Q04DX003 (ip), vehicle: saline with Tween-80
  T/C: 95 % of control
dose: 1.5 mg/kg/injection, schedule: Q01DX009 (ip), vehicle: saline
  T/C: 100 % of control

## N#CCCn1ncc(C#N)c1N
dose: 50.0 mg/kg/injection, schedule: Q01DX005 (ip), vehicle: Klucel (hydroxypropylcellulose) (HPC)
  T/C: 99 % of control
dose: 100.0 mg/kg/injection, schedule: Q01DX005 (ip), vehicle: Klucel (hydroxypropylcellulose) (HPC)
  T/C: 107 % of control
dose: 200.0 mg/kg/injection, schedule: Q01DX005 (ip), vehicle: Klucel (hydroxypropylcellulose) (HPC)
  T/C: 90 % of control

## COc1ccc(CCNC(=O)C(=O)c2c[nH]c3ccccc23)cc1OC
[17]
  T/C: 90 % of control
[18]
  T/C: 88 % of control
[19]
  T/C: 89 % of control

## O=C1OCCOCCSCCOCCOC(=O)c2cccc1n2
[1]
  T/C: 101 % of control
dose: 200.0 mg/kg/injection, schedule: Q04DX003 (ip), vehicle: Klucel (hydroxypropylcellulose) (HPC)
  T/C: 102 % of control
[2]
  T/C: 100 % of control

## O=C1CCN=C2C(=O)c3ccccc3C(O)=C12
dose: 25.0 mg/kg/injection, schedule: Q01DX009 (ip), vehicle: Klucel (hydroxypropylcellulose) (HPC)
  T/C: 115 % of control
dose: 50.0 mg/kg/injection, schedule: Q01DX009 (ip), vehicle: Klucel (hydroxypropylcellulose) (HPC)
  T/C: 123 % of control
dose: 100.0 mg/kg/injection, schedule: Q01DX009 (ip), vehicle: Klucel (hydroxypropylcellulose) (HPC)
  T/C: 121 % of control

## COC(=O)C1c2cc3c(c(O)c2C(OC)CC1(C)O)C(=O)c1c(O)cc2c(c1C3=O)OC1OC2(C)C(O)C(N(C)C)C1O (centres undefined)
dose: 3.16 mg/kg/injection, schedule: Q01DX009 (ip), vehicle: other
  T/C: 156 % of control
dose: 5.0 mg/kg/injection, schedule: Q01DX009 (ip), vehicle: other
  T/C: 161 % of control
dose: 6.25 mg/kg/injection, schedule: Q01DX009 (ip), vehicle: other
  T/C: 168 % of control
dose: 10.0 mg/kg/injection, schedule: Q01DX009 (ip), vehicle: other
  T/C: 171 % of control
dose: 12.5 mg/kg/injection, schedule: Q01DX009 (ip), vehicle: other
  T/C: 168 % of control
dose: 20.0 mg/kg/injection, schedule: Q01DX009 (ip), vehicle: other
  T/C: 171 % of control
dose: 25.0 mg/kg/injection, schedule: Q01DX009 (ip), vehicle: other
  T/C: 198 % of control
dose: 40.0 mg/kg/injection, schedule: Q01DX009 (ip), vehicle: other
  T/C: 117 % of control

## CN(C)c1ccc2c(=O)cc[nH]c2c1
[3]
  T/C: 96 % of control
[4]
  T/C: 100 % of control
[5]
  T/C: 100 % of control

## COC1=CC(=O)c2cc3ccc(OC)c(N)c3nc2C1=O
[12]
  T/C: 100 % of control
[13]
  T/C: 102 % of control

## CSCc1cc(Cl)cc2c1OCOC2
[20]
  T/C: 102 % of control
[6]
  T/C: 96 % of control
[7]
  T/C: 100 % of control

## COC1=CC23CCCN2CCc2cc4c(cc2C3C1O)OCO4 (centres undefined)
[8]
  T/C: 103 % of control
[9]
  T/C: 99 % of control
[10]
  T/C: 104 % of control
dose: 60.0 mg/kg/injection, schedule: Q01DX005 (ip), vehicle: Klucel (hydroxypropylcellulose) (HPC)
  T/C: 101 % of control
[11]
  T/C: 96 % of control
dose: 120.0 mg/kg/injection, schedule: Q01DX005 (ip), vehicle: Klucel (hydroxypropylcellulose) (HPC)
  T/C: 106 % of control
dose: 200.0 mg/kg/injection, schedule: Q01DX009 (ip), vehicle: water
  T/C: 99 % of control
dose: 240.0 mg/kg/injection, schedule: Q01DX005 (ip), vehicle: Klucel (hydroxypropylcellulose) (HPC)
  T/C: 101 % of control

## O=C1COC(C(=O)c2ccccc2)C(=O)N1 (centres undefined)
[14]
  T/C: 98 % of control
[15]
  T/C: 95 % of control
[16]
  T/C: 95 % of control

## C=CCN(CC=C)CCN1CCN(CCCN2c3ccccc3Sc3ccc(C(F)(F)F)cc32)CC1
dose: 12.5 mg/kg/injection, schedule: Q04DX003 (ip), vehicle: saline
  T/C: 101 % of control and 103 % of control
dose: 25.0 mg/kg/injection, schedule: Q04DX003 (ip), vehicle: saline
  T/C: 111 % of control and 112 % of control
dose: 50.0 mg/kg/injection, schedule: Q04DX003 (ip), vehicle: saline
  T/C: 104 % of control and 107 % of control
dose: 100.0 mg/kg/injection, schedule: Q04DX003 (ip), vehicle: saline
  T/C: 100 % of control and 102 % of control

## C1=C(/c2ccccc2)NCCN=C(c2ccccc2)CS/1
[17]
  T/C: 104 % of control
[18]
  T/C: 101 % of control
[19]
  T/C: 101 % of control

## CN(C)c1ccc2[nH]c3ccccc3c2c1
[14]
  T/C: 107 % of control
[15]
  T/C: 108 % of control
[16]
  T/C: 121 % of control

## CCCCCOCC(=O)O
dose: 25.0 mg/kg/injection, schedule: Q01DX009 (ip), vehicle: saline with Tween-80
  T/C: 104 % of control
[20]
  T/C: 94 % of control
[6]
  T/C: 96 % of control
